Tests used:
[1] = ad libitum test lunch energy intake 1.5 hours after yoghurt pre-load, days 1 and 10 (Example 1); type: in vivo, human; conditions: for difference in average test meal energy intake versus control (significance): paired comparison; for difference in average test meal energy intake versus control (significance) / combined (pre-load and test lunch) energy intake versus control (significance): p<0.05; for combined (pre-load and test lunch) energy intake versus control (significance): post-hoc paired comparisons
Description: Eight female and seven male subjects with mean ages ranging from about 29.5 to 30.7 yr. were used in the study. They were lean (having BMI of 21.6 Kg/m^2-23.8 Kg/m^2), and they exercised between 2-3 times per week. There were four experimental conditions that all subjects completed in a counterbalanced order with each condition separated by a one-week washout period. During each experimental condition, subjects were provided with either control or test yoghurts to consume as part of their normal diet for 10 consecutive days. The four experimental conditions differed according to the type of carbohydrate added to the yoghurt consumed: [table] Volunteers were required to consume one portion (200 g) of yoghurt on each of the 10 days. Therefore, energy content of the yoghurts varied between the four yoghurt formulations while weight was held constant. Subjects consumed the yoghurts for 10 consecutive days. However, days 2-9 were free-living during which time they were not required to visit the human appetite research unit (HARU), where the studies described hereinbelow were performed. On days 1 and 10 (test days), subjects were required to visit the HARU for a fixed breakfast at 8:30 a.m. and an ad libitum test lunch. The energy and nutrient content of the breakfast, was fixed for each of the conditions. Immediately after breakfast subjects were free to leave the unit and instructed to consume the yoghurt at 11:00am and not to consume any other food or drink during the breakfast-lunch interval. At 12:30 subjects returned to the unit for the ad libitum test lunch and were instructed to eat until a comfortable level of fullness. The food was weighed immediately before and after the test lunch to determine the energy and nutrient of food consumed. The test lunch was mixed composition (31% Fat, 53% Carbohydrate and 16% Protein) and consisted of sandwiches, […] fruit. Immediately after the test lunch subjects were provided with their yoghurts for days 2-9 and were instructed to return at 8:30 on day 10. On days 1 and 10, volunteers were provided with an ad libitum lunch 1.5 hours following consumption of the yoghurt pre-load.

[2] = after ingestion of 25 g xylitol; control 58±5 min; cited from earlier work
[3] = after oral preloading of 25 g xylitol with water, cited from earlier work
[4] = humans; cited from earlier work

Row | SMILES | Suppression (%) in energy intake compared with the control yoghurt, All ([1]; all subjects, 25 g/day in 200 g yoghurt, test lunch 1.5 h after pre-load) [%] | Suppression (%) in combined preload plus test meal energy intake compared with the control yoghurt, All ([1]; all subjects, energy content of pre-load accounted for) [%] | Suppression (%) in combined preload plus test meal energy intake compared with the control yoghurt, Females ([1]; females, energy content of pre-load accounted for) [%] | Suppression (%) in energy intake compared with the control yoghurt, Females ([1]; females, test lunch 1.5 h after pre-load) [%] | Suppression (%) in combined preload plus test meal energy intake compared with the control yoghurt, Males ([1]; males, energy content of pre-load accounted for) [%] | Suppression (%) in energy intake compared with the control yoghurt, Males ([1]; males, test lunch 1.5 h after pre-load) [%] | difference in average test meal energy intake versus control (significance) [1] | difference in average test meal energy intake versus control (significance) ([1]; listed as xylitol) | combined (pre-load and test lunch) energy intake versus control (significance) [1] | combined (pre-load and test lunch) energy intake versus control (significance) ([1]; listed as xylitol) | gastric emptying T-1/2 [2] [min] | reduction in calories versus control [3] [%] | food intake ([3]; control 920±60 Kcal) [kcal] | reduction of human absorption of fat [4] [%]
1 | OC[C@@H](O)[C@H](O)[C@@H](O)CO [Xyl, Xylitol] | 11.9 | 14.8 | 11.6 | 6.4 | 16.1 | 15.3 | statistically significant | significant reduction | significantly lower | significant calorie reduction | 91 ± 7 | 25 | 690 ± 45 | –
2 | CCCCCCCCCCC[C@@H](C[C@@H]1OC(=O)[C@H]1CCCCCC)OC(=O)[C@H](CC(C)C)NC=O [tetrahydrolipostatin] | – | – | – | – | – | – | – | – | – | – | – | – | – | 30
